Measurements: BigSolDB 2.1

Nc1cc(C(=O)O)ccc1C(=O)O
solubility (mole fraction)
Settings	in ethanol	in isopentanol	in isopropanol	in methanol	in n-butanol	in n-propanol	in sec-butanol	in tert-butanol
303.15 K	0.0349	0.00536	0.0211	0.0685	0.00721	–	0.00989	0.0216
303.25 K	–	–	–	–	–	0.0137	–	–
308.15 K	0.0383	0.00583	0.0236	–	0.00854	–	0.0119	0.0237
308.75 K	–	–	–	–	–	0.0165	–	–
313.15 K	0.0422	0.00643	–	0.0794	0.0098	–	0.0139	0.0268
313.75 K	–	–	–	–	–	0.0193	–	–
318.15 K	0.0461	–	0.0293	0.0853	0.0112	0.0223	–	0.0293
323.15 K	0.051	0.00764	0.0326	0.0917	0.0131	0.0256	0.0192	0.0315
328.15 K	0.0552	–	–	0.0982	–	0.0293	0.0222	0.0351
333.15 K	0.06	0.00895	–	0.105	0.0168	0.0334	–	0.0375
338.15 K	0.0655	0.00972	0.0441	0.112	0.0189	0.0392	0.0297	0.0421
